Experimental data: US20240173302A1, “TREATMENT OF INFLAMMATORY DISEASES” (DIMERIX BIOSCIENCE PTY LTD, priority 2021, published 2024)
Entries after “also recorded” stand apart in the source; their conditions may differ.

Key:
[1] = tested on: CCR2 in the presence of unlabelled ETAR; assay: Receptor-HIT BRET β-arrestin recruitment assay, CCR2/Rluc8+Barr2/Venus+HA-ETAR; type: cell-based, human; conditions: HEK293FT cells
ETAR and CCR2 heteromer = molecular target: T1, ETAR and CCR2 heteromer (Homo sapiens, UniProt P25101+P41597); assay: Receptor-HIT BRET β-arrestin recruitment assay, ETAR/Rluc8+Barr2/Venus+CCR2; type: cell-based; conditions: HEK293FT cells; for hyperactivation of β-arrestin recruitment to ETAR (ligand-induced BRET): both CCL2/MCP-1 and ET-1 present; for agonist-induced β-arrestin recruitment to ETAR (ligand-induced BRET): no antagonist
T1 construct: expressed in transfected cells; host or cells: HEK293FT
Experimental: HEK293FT cells were seeded in 6-well plates at a density of approximately 700,000 cells/well and maintained at 37° C., 5% CO2 in Complete Media (DMEM containing 0.3 mg/ml glutamine, 100 IU/ml penicillin and 100 μg/ml streptomycin (Thermo Fisher)) supplemented with 10% fetal calf serum (FCS; Bovogen). Transient transfections were carried out 24 h after seeding using FuGene6 (Promega) according to manufacturer instructions. 24 h post-transfection, cells were washed with PBS, detached using 0.05% trypsin/0.53 mM EDTA, resuspended in phenol red free Complete Media containing 5% FCS and added to a poly-L-lysine-coated white 96-well microplate (Greiner Bio-One). 48 h post-transfection, bioluminescence resonance energy transfer (BRET) assays were carried out following pre-incubation of cells with EnduRen™ (Promega) at a final concentration of 30 μM, at 37° ° C., 5% CO2 for 2 h. BRET measurements were taken at 37° C. using the CLARIOstar (BMG Labtech). Filtered light emissions were sequentially measured for 1 s in each of the ‘donor wavelength window’ (410-490 nm) and ‘acceptor wavelength window’ (520-620 nm).
For antagonist assays, cells were pre-incubated in EnduRen for 2 h. The antagonists (10 μM) were added and the assay was read for 30 min. Subsequently, the agonists (CXCL8 10 nM, AngII 100 nM) were added and the measurements continued for another 1 h.
The BRET signal observed between interacting proteins is normalized by subtracting the background BRET ratio. This can be done in one of two ways (see Pfleger et al. (2006) Cell Signal 18:1664-1670; Pfleger et al. (2006) Nat Protoc 1:336-344): 1) the ratio of the 520-550 nm emission over the 460-490 nm emission for a cell sample containing only the donor construct is subtracted from the same ratio for a sample containing the interacting acceptor and donor fusion proteins; 2) the ratio of the 520-550 nm emission over the 460-490 nm emission for a cell sample treated with vehicle is subtracted from the same ratio for a second aliquot of the same cell sample treated with ligand. In the following examples, the second calculation will be used and the signal is described as ‘ligand-induced BRET’.
The Receptor-Heteromer Investigation Technology (Receptor-HIT) is an assay configuration that provides insights into receptor complexes (Ayoub et al. (2015) PLOS One 10(3):e0119803). It is also known as GPCR-HIT when assessing GPCRs. It is an assay configuration whereby one receptor (eg. CCR2) is labelled with one component (eg. Renilla luciferase variant Rluc8) of a proximity-based reporter system (eg. BRET), the complementary component of which (eg. yellow fluorescent protein Venus) is fused to a receptor interacting partner (eg. β-arrestin 2). Treatment with a ligand (eg. AngII) selective for the receptor untagged with respect to the BRET assay (eg. hemagglutinin epitope-tagged AT1R; HA-AT1R) results in modulation of the proximity of the BRET-tagged receptor and the interacting partner, resulting in a change in BRET signal that is indicative of functional interaction between the two receptors.

T1 sequence (P25101 21-427): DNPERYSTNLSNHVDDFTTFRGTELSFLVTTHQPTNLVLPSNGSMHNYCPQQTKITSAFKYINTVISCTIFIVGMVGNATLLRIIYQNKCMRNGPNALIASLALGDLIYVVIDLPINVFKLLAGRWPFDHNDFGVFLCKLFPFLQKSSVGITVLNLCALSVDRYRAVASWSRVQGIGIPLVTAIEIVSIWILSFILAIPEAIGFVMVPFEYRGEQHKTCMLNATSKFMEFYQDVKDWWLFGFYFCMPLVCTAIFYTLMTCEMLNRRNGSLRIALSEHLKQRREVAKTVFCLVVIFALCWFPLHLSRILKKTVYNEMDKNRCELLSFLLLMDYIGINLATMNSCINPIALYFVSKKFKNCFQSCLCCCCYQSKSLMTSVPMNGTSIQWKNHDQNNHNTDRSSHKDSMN
T1 sequence (P41597 whole entry): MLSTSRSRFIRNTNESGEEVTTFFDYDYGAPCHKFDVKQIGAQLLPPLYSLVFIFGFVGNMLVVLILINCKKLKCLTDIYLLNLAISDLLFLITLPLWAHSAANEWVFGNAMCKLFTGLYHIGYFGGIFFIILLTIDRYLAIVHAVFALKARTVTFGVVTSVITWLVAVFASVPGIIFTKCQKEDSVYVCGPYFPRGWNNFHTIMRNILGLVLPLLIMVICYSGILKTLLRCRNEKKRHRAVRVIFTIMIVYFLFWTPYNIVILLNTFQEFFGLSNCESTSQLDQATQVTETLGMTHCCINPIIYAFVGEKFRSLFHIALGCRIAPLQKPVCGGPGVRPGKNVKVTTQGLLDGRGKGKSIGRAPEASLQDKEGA

Compound: CCCCC1=NC2(CCCC2)C(=O)N1Cc1ccc(-c2ccccc2S(=O)(=O)Nc2noc(C)c2C)c(COCC)c1 [Sparsentan, 2-[4-[(2-butyl-4-oxo-1,3-diazaspiro[4.4]non-1-en-3-yl)methyl]-2-(ethoxymethyl)phenyl]-N-(4,5-dimethyl-1,2-oxazol-3-yl)benzenesulfonamide]
- increased recruitment of β-arrestin to CCR2 (ligand-induced BRET) ([1]; CCL2/MCP-1 and ET-1 present, antagonists 10 μM): increased recruitment of β-arrestin is not observed
- β-arrestin recruitment to ETAR stimulated with ET-1 (ligand-induced BRET) (ETAR and CCR2 heteromer; ET-1 alone, antagonists 10 μM): inhibits this signalling independent of CCR2 activation
- hyperactivation of β-arrestin recruitment to ETAR (ligand-induced BRET) (ETAR and CCR2 heteromer; antagonists 10 μM): abrogate the hyperactivation when both CCL2/CMP-1 and ET-1 ligands are present but not cease recruitment of β-arrestin to ETAR
- hyperactivation of β-arrestin recruitment to ETAR (ligand-induced BRET) (ETAR and CCR2 heteromer; antagonists 10 μM, listed as sparsentan): abrogated

Compound: endothelin-1 [ET-1]
- agonist-induced β-arrestin recruitment to ETAR (ligand-induced BRET) (ETAR and CCR2 heteromer): β-arrestin is recruited to ETAR; also recorded: recruit β-arrestin at a low magnitude

Compound: monocyte chemoattractant protein-1 [CCL2/MCP-1]
- agonist-induced β-arrestin recruitment to CCR2 (ligand-induced BRET) ([1]; no antagonist): β-arrestin is recruited to CCR2
- agonist-induced β-arrestin recruitment to ETAR (ligand-induced BRET) (ETAR and CCR2 heteromer): β-arrestin is recruited to ETAR
- agonist-induced β-arrestin recruitment to ETAR (ligand-induced BRET) (ETAR and CCR2 heteromer; listed as CCL2): β-arrestin recruitment to ETAR occurs
- agonist-induced β-arrestin recruitment to ETAR (ligand-induced BRET) (ETAR and CCR2 heteromer; listed as CCL2/MCP1): β-arrestin is recruited to ETAR
